Experimental data published in BindingDB's records for doi:10.1016/S0960-894X(97)00091-7 (1997).
pIC50, pKi: −log10 of the molar value. Where a SMILES comes first, the peptide text is derived from it. The star is where a group is joined. Cbz = O=C(OCc1ccccc1)*

Experiments:
[1] = biological target: Chymotrypsinogen A (Bos taurus) (UniProt P00766); assay: The compound was tested for the inhibition of alpha-Chymotrypsin, activity expressed as IC50
[2] = biological target: Chymotrypsinogen A (Bos taurus) (UniProt P00766); assay: as above; remark: listed apart in the source

C[C@H](NC(=O)OCc1ccccc1)C(=O)N[C@@H](C)C(=O)N[C@H](C=O)Cc1ccccc1 [{1-[1-(1-Benzyl-2-oxo-ethylcarbamoyl)-ethylcarbamoyl]-ethyl}-carbamic acid benzyl ester] (Cbz-Ala-Ala-Phe-aldehyde) showed a pKi [1] of 5.66 and a pIC50 [2] of 6.02.
